Experimental data reported in US20150203474A1, “SOLID FORMS COMPRISING INHIBITORS OF HCV NS5A, COMPOSITIONS THEREOF, AND USES THEREWITH” (PRESIDIO PHARMACEUTICALS ,INC., priority 2012, published 2015).
Like-named read-outs stand apart in the source and are kept apart here.

Assays:
[1] = Solubility of Form I and free base compound 4-3 (visual and HPLC assay of filtrate); format: physicochemical; conditions: for pH (Filtrated): filtrate of solubility sample; for HPLC Solubility / Visual Solubility (observation in words) / solubility at 24 h: target conc. 2.0 mg/mL; for HPLC Solubility / solubility at 24 h: 24 hours ambient, 0.45-μm filtrate; for solubility at 24 h: thermodynamic from solid, read-out: HPLC Solubility
Protocol: Solubility of Form I as well as the free base compound 4-3 was tested. Solubility was measured by placing a small quantity of the compound to be analyzed in a glass vial, capping and rotating the vial overnight at ambient conditions (24 hours). Target concentration was 2.0 mg/mL. The samples were filtrated with 0.45-μm filters. The subsequent filtrate was collected for HPLC assay. HPLC conditions are shown in Table 10 in Appendix A. Solubility for Form I is shown in Table 11 and for the free base compound 4-3 is shown in Table 12 in Appendix A. [table]

[2] = Moisture sorption profile (DVS) of Compound II Form I and amorphous Compound II; format: physicochemical; conditions: DVS at 25° C.
Protocol: The moisture sorption profile was generated of the sample as well as of a sample of amorphous Compound II at 25° C. using a DVS Moisture Balance Flow System (Model Advantage) with the following conditions: sample size approximately 10 mg, drying 25° C. for 60 minutes, adsorption range 0% to 95% RH, desorption range 95% to 0% RH, and step interval 5%. The equilibrium criterion was <0.01% weight change in 5 minutes for a maximum of 120 minutes.

HCV genotype 5a replicon = experiment: HCV replicon assay, GT 5a (luciferase readout); format: cell-based; conditions: Hepatitis C virus; GT 5a replicon; n > 3
Protocol: (§1) Biological activity of the compounds of the invention was determined using an HCV replicon assay. The 1b_Huh-Luc/Neo-ET cell line persistently expressing a bi-cistronic genotype 1b replicon in Huh 7 cells was obtained from ReBLikon GMBH. This cell line was used to test compound inhibition using luciferase enzyme activity readout as a measurement of compound inhibition of replicon levels.
(§2) On Day 1 (the day after plating), each compound was added in triplicate to the cells. Plates incubated for 72 hrs prior to running the luciferase assay. Enzyme activity was measured using a Bright-Glo Kit (cat. number E2620) manufactured by Promega Corporation. The following equation was used to generate a percent control value for each compound.
(§3) % Control=(Average Compound Value/Average Control)*100
(§4) The EC50 value was determined using GraphPad Prism and the following equation:
(§5) Y=Bottom+(Top−Bottom)/(1+10̂((LogIC50−X)*HillSlope))
(§6) EC50 values of compounds are repeated several times in the replicon assay.
(§7) The disclosed compounds can inhibit multiple genotypes of HCV including, but not limited to 1a, 1b, 2a, 3a, 4a and 5a. The EC50s are measured in the corresponding replicon assays that are similar to HCV 1b replicon assay as described above.

HCV genotype 3a replicon = experiment: HCV replicon assay, GT 3a (luciferase readout); format: cell-based; conditions: Hepatitis C virus; GT 3a replicon; n > 3
Protocol: as §1, §2, §3, §4, §5, §6, §7

HCV genotype 4a replicon = experiment: HCV replicon assay, GT 4a (luciferase readout); format: cell-based; conditions: Hepatitis C virus; GT 4a replicon; n > 3
Protocol: as §1, §2, §3, §4, §5, §6, §7

[3] = tested on: bi-cistronic genotype 1b replicon in Huh 7 cells (1b_Huh-Luc/Neo-ET cell line); experiment: HCV replicon assay, GT 1b (luciferase readout); format: cell-based; conditions: Hepatitis C virus, GT 1b replicon, n > 3
Protocol: as §1, §2, §3, §4, §5, §6

HCV genotype 1a replicon = experiment: HCV replicon assay, GT 1a (luciferase readout); format: cell-based; conditions: Hepatitis C virus; GT 1a replicon; n > 3
Protocol: as §1, §2, §3, §4, §5, §6, §7

HCV genotype 2a replicon = experiment: HCV replicon assay, GT 2a (luciferase readout); format: cell-based; conditions: Hepatitis C virus; GT 2a replicon; n > 3
Protocol: as §1, §2, §3, §4, §5, §6, §7

## CC[C@H](C)[C@H](NC(=O)OC)C(=O)N1CCC[C@H]1c1nc2ccc(-c3ccc4cc(-c5cnc([C@@H]6CCCN6C(=O)[C@@H](NC(=O)OC)[C@@H](C)OC)[nH]5)ccc4c3)cc2[nH]1 [compound 4-3]
[1]; 0.1N HCl
  pH (Filtrated): 1.09
  HPLC Solubility: 2066 µg/mL
[1]; Water
  pH (Filtrated): 8.83
  Visual Solubility (observation in words): Turbid +
  HPLC Solubility: <1 µg/mL
[1]; pH 2 medium
  pH (Filtrated): 2.17
  HPLC Solubility: 2056 µg/mL
[1]; pH 3 medium
  pH (Filtrated): 3.59
  Visual Solubility (observation in words): A few
  HPLC Solubility: 1763 µg/mL
[1]; pH 4 medium
  pH (Filtrated): 4.72
  Visual Solubility (observation in words): Turbid +
  HPLC Solubility: 11 µg/mL
[1]; pH 5 medium
  pH (Filtrated): 5.27
  HPLC Solubility: 1 µg/mL
[1]; pH 6 medium, pH 6, aqueous buffer, pH 6 medium
  solubility at 24 h: < 1 µg/mL
[1]; pH 6 medium
  pH (Filtrated): 6.04
  Visual Solubility (observation in words): Turbid +
[1]; pH 7 medium, pH 7, aqueous buffer, pH 7 medium
  solubility at 24 h: < 1 µg/mL
[1]; pH 7 medium
  pH (Filtrated): 7.00
  Visual Solubility (observation in words): Turbid +
[1]; pH 8 medium, pH 8, aqueous buffer, pH 8 medium
  solubility at 24 h: < 1 µg/mL
[1]; pH 8 medium
  pH (Filtrated): 7.91
  Visual Solubility (observation in words): Turbid +

## CC[C@H](C)[C@H](NC(=O)OC)C(=O)N1CCC[C@H]1c1nc2ccc(-c3ccc4cc(-c5cnc([C@@H]6CCCN6C(=O)[C@@H](NC(=O)OC)[C@@H](C)OC)[nH]5)ccc4c3)cc2[nH]1 [amorphous Compound II]
[2]
  weight percentage change (water uptake) from 0-75% RH: 13.57%

## COC(=O)N[C@H](C(=O)N1CCC[C@H]1c1ncc(-c2ccc3cc(-c4ccc5nc([C@@H]6CCCN6C(=O)[C@@H](NC(=O)OC)C(C)C)[nH]c5c4)ccc3c2)[nH]1)C(C)C [Compound I]
HCV genotype 5a replicon
  EC50: 39 pM
HCV genotype 3a replicon
  EC50: 1260 pM
HCV genotype 4a replicon
  EC50: 52 pM
[3]
  EC50: 16 pM
HCV genotype 1a replicon
  EC50: 135 pM
HCV genotype 2a replicon
  EC50: 139 pM

## CC[C@H](C)[C@H](NC(=O)OC)C(=O)N1CCC[C@H]1c1nc2ccc(-c3ccc4cc(-c5cnc([C@@H]6CCCN6C(=O)[C@@H](NC(=O)OC)[C@@H](C)OC)[nH]5)ccc4c3)cc2[nH]1 [Compound II]
HCV genotype 5a replicon
  EC50: 40 pM
HCV genotype 3a replicon
  EC50: 400 pM
HCV genotype 4a replicon
  EC50: 40 pM
[3]
  EC50: 10 pM
HCV genotype 1a replicon
  EC50: 70 pM
HCV genotype 2a replicon
  EC50: 110 pM
